Assay results published in ChEMBL document CHEMBL1141099, “Discovery of N-(2,6-dimethylphenyl)-substituted semicarbazones as anticonvulsants: hybrid pharmacophore-based design” (2005).

Columns and labels:
Rattus norvegicus [1] = test: Effect on GABA level in rat whole brain concentration after 2 hr post-treatment at a dose of 100 mg/Kg when given i.p.; Control 48.4; type: functional
[2] = target: 4-aminobutyrate aminotransferase, mitochondrial (Rattus norvegicus) (UniProt P50554); test: In vitro percentage inhibition activity against GABA-T enzyme at a concentration of 5 uM after 4.5 h
4-aminobutyrate aminotransferase, mitochondrial (Rattus norvegicus), sequence (P50554 28-500 limits assumed): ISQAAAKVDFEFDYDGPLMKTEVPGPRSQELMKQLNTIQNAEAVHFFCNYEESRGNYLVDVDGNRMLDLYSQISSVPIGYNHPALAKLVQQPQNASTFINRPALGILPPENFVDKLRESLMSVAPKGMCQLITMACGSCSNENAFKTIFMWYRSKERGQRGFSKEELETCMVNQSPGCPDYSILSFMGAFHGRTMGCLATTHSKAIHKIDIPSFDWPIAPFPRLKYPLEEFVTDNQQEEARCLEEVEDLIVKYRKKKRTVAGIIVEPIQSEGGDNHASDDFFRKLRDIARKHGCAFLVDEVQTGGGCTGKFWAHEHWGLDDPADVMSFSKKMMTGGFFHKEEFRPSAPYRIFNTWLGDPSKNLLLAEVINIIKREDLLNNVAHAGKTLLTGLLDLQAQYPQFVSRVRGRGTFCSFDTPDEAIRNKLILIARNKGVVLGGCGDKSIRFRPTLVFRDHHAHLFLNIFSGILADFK

[3] = target: 4-aminobutyrate aminotransferase, mitochondrial (Rattus norvegicus) (UniProt P50554); test: In vitro percentage inhibition activity against GABA-T enzyme at a concentration of 5 uM after 3 h
Mus musculus [4] = test: Minimum dose required for anticonvulsant activity when given i.p., at 2 hr in mice upon subcutaneous strychnine seizure; type: functional
Rattus norvegicus [5] = species: Rattus norvegicus; test: Protective index between effective dose and toxic dose in rat; type: functional
Mus musculus [6] = test: Minimum dose required for anticonvulsant activity when given i.p., at 0.5 hr in mice upon subcutaneous strychnine seizure; type: functional
Mus musculus [7] = test: Minimum dose required for anticonvulsant activity when given i.p., at 0.5 hr in mice upon maximal electroshock seizure; type: functional
Rattus norvegicus [8] = species: Rattus norvegicus; test: Ex vitro percentage inhibition activity against GABA-T enzyme at a concentration of 1.25 uM after 6 h; type: functional
Mus musculus [9] = test: Post treatment immobility time for CNS study using Porsolt's swimpool test at a dose of 100 mg/Kg after 1 hr when given i.p., in mice (No. of animals 6); Control (24h before) 146
Rattus norvegicus [10] = test: Enzymatic activity to assess the increase in level of SGPT at a dose of 30 mg/Kg for 14 days when given p.o., in 6 rats; Control 45.0; type: functional
Mus musculus [11] = test: Post treatment activity score for CNS study using a actophotometer at a dose of 100 mg/Kg after 1 hr when given i.p., in mice (No. of animals 6); Control (24h before) 268
Rattus norvegicus [12] = test: Number of rats protected at a dose of 30 mg/Kg when given oral at 4 hr upon maximal electroshock seizure; Total number of rats = 4; type: functional
Mus musculus [13] = test: Minimum dose required for anticonvulsant activity when given i.p., at 0.5 hr in mice upon subcutaneous pentylenetetrazole seizure; type: functional
Rattus norvegicus [14] = test: Number of rats protected at a dose of 30 mg/Kg when given oral at 1 hr upon maximal electroshock seizure; Total number of rats = 4; type: functional
Mus musculus [15] = test: Mean sleeping time evaluated for CNS study using the pentobarbital-induced narcosis model at a dose of 100 mg/Kg when given i.p., in mice (No. of animals 6)
Rattus norvegicus [16] = test: Effect on GABA level in rat whole brain concentration after 7 days post-treatment at a dose of 30 mg/Kg when given orally; Control 50.5; type: functional
Rattus norvegicus [17] = test: Effective dose required for anticonvulsant activity when given orally at 2 h in rat upon maximal electroshock seizure; type: functional; conditions: po
Mus musculus [18] = test: Post treatment activity score for CNS study using a actophotometer at a dose of 100 mg/Kg after 0.5 hr when given i.p., in mice (No. of animals 6); Control (24h before) 268
Rattus norvegicus [19] = test: Number of rats protected at a dose of 30 mg/Kg when given oral at 0.25 hr upon maximal electroshock seizure; Total number of rats = 4; type: functional
[20] = target: 4-aminobutyrate aminotransferase, mitochondrial (Rattus norvegicus) (UniProt P50554); test: In vitro percentage inhibition activity against GABA-T enzyme at a concentration of 5 uM after 6 h
Rattus norvegicus [21] = test: Enzymatic activity to assess the increase in level of SGOT at a dose of 30 mg/Kg for 14 days when given p.o., in 6 rats; Control 73.1; type: functional
Rattus norvegicus [22] = test: Toxic dose observed for anticonvulsant activity when given orally at 2 hr in rat upon neurotoxicity seizure; type: functional; conditions: po
Mus musculus [23] = test: Minimum dose required for anticonvulsant activity when given i.p., at 4 hr in mice upon maximal electroshock seizure; type: functional
Rattus norvegicus [24] = species: Rattus norvegicus; test: Ex vitro percentage inhibition activity against GABA-T enzyme at a concentration of 1.25 uM after 3 h; type: functional
Rattus norvegicus [25] = species: Rattus norvegicus; test: Ex vitro percentage inhibition activity against GABA-T enzyme at a concentration of 1.25 uM after 4.5 h; type: functional
Rattus norvegicus [26] = test: Number of rats protected at a dose of 30 mg/Kg when given oral at 2 hr upon maximal electroshock seizure; Total number of rats = 4; type: functional
Rattus norvegicus [27] = test: Number of rats protected at a dose of 30 mg/Kg when given oral at 0.5 hr upon maximal electroshock seizure; Total number of rats = 4; type: functional
Mus musculus [28] = test: Minimum dose required for anticonvulsant activity when given i.p., at 0.5 hr in mice upon neurotoxicity seizure using rotarod test; type: functional
Mus musculus [29] = test: Post treatment activity score for CNS study using a actophotometer at a dose of 100 mg/Kg after 0.5 hr when given i.p., in mice (No. of animals 6); Control (24h before) 245
Rattus norvegicus [30] = test: Effective dose required for anticonvulsant activity when given i.p., at 2 hr in rat upon maximal electroshock seizure; type: functional; conditions: ip
Rattus norvegicus [31] = test: Toxic dose observed for anticonvulsant activity when given i.p., at 2 hr in rat upon neurotoxicity seizure; type: functional; conditions: ip
Mus musculus [32] = test: Post treatment immobility time for CNS study using Porsolt's swimpool test at a dose of 100 mg/Kg after 1 hr when given i.p., in mice (No. of animals 6); Control (24h before) 182
[33] = target: 4-aminobutyrate aminotransferase, mitochondrial (Rattus norvegicus) (UniProt P50554); test: In vitro percentage inhibition activity against GABA-T enzyme at a concentration of 0.625 uM after 3 h
Mus musculus [34] = test: Post treatment activity score for CNS study using a actophotometer at a dose of 100 mg/Kg after 1 hr when given i.p., in mice (No. of animals 6); Control (24h before) 245
[35] = target: 4-aminobutyrate aminotransferase, mitochondrial (Rattus norvegicus) (UniProt P50554); test: In vitro percentage inhibition activity against GABA-T enzyme at a concentration of 0.625 uM after 6 h
[36] = target: 4-aminobutyrate aminotransferase, mitochondrial (Rattus norvegicus) (UniProt P50554); test: In vitro percentage inhibition activity against GABA-T enzyme at a concentration of 0.625 uM after 4.5 h
Rattus norvegicus [37] = test: Toxic dose observed for anticonvulsant activity when given i.p., at 1 h in rat upon neurotoxicity seizure; type: functional; conditions: ip
Rattus norvegicus [38] = species: Rattus norvegicus; test: Ex vitro percentage inhibition activity against GABA-T enzyme at a concentration of 2.5 uM after 4.5 h; type: functional
Mus musculus [39] = test: Post treatment activity score for CNS study using a actophotometer at a dose of 100 mg/Kg after 1 h when given i.p., in mice (No. of animals 6); Control (24h before) 238
Rattus norvegicus [40] = test: Effective dose required for anticonvulsant activity when given i.p., at 1 hr in rat upon maximal electroshock seizure; type: functional; conditions: ip
Rattus norvegicus [41] = species: Rattus norvegicus; test: Ex vitro percentage inhibition activity against GABA-T enzyme at a concentration of 2.5 uM after 6 h; type: functional
Rattus norvegicus [42] = species: Rattus norvegicus; test: Ex vitro percentage inhibition activity against GABA-T enzyme at a concentration of 2.5 uM after 3 h; type: functional
Mus musculus [43] = test: Post treatment activity score for CNS study using a actophotometer at a dose of 100 mg/Kg after 0.5 hr when given i.p., in mice (No. of animals 6); Control (24h before) 238
Mus musculus [44] = test: Post treatment immobility time for CNS study using Porsolt's swimpool test at a dose of 100 mg/Kg after 1 hr when given i.p., in mice (No. of animals 6); Control (24h before) 143
Mus musculus [45] = test: Post treatment activity score for CNS study using a actophotometer at a dose of 100 mg/Kg after 1 hr when given i.p., in mice (No. of animals 6); Control (24h before) 224
Mus musculus [46] = test: Post treatment activity score for CNS study using a actophotometer at a dose of 100 mg/Kg after 0.5 hr when given i.p., in mice (No. of animals 6); Control (24h before) 224

| SMILES | Activity (Rattus norvegicus [1]) | inhibition [2] | inhibition [3] | STY seizure (Mus musculus [4]) | PI (Rattus norvegicus [5]) | STY seizure (Mus musculus [6]) | MES (Mus musculus [7]) | Inhibition (Rattus norvegicus [8]) | Activity (Rattus norvegicus [12]) | PTZ seizure (Mus musculus [13]) | Activity (Rattus norvegicus [14]) | Time (Mus musculus [15]) | Activity (Rattus norvegicus [16]) | Activity (Rattus norvegicus [19]) | inhibition [20] | MES (Mus musculus [23]) | Inhibition (Rattus norvegicus [24]) | Inhibition (Rattus norvegicus [25]) | Activity (Rattus norvegicus [26]) | Activity (Rattus norvegicus [27]) | other results |
| --- | --- | --- | --- | --- | --- | --- | --- | --- | --- | --- | --- | --- | --- | --- | --- | --- | --- | --- | --- | --- | --- |
| Cc1ccc(/C=N/NC(=O)Nc2c(C)cccc2C)cc1 | 90.2 ug/100mg of tissue | 70% | 55% | 100 mg/kg | >3.62 | 100 mg/kg | 100 mg/kg | 48% | 3 | 300 mg/kg | 3 | 150 min | 100 ug/100mg of tissue | 0 | 0% | 300 mg/kg | 32% | 75% | 4 | 2 | Activity (Mus musculus [9]): 225; SGPT activity (Rattus norvegicus [10]): 47.3 units/mL; Activity (Mus musculus [11]): 133; ED50 (Rattus norvegicus [17]): 33.1 mg/kg; Activity (Mus musculus [18]): 175; SGOT activity (Rattus norvegicus [21]): 70.2 units/mL; TD50 (Rattus norvegicus [22]): > 120 mg/kg |
| Cc1cccc(C)c1NC(=O)N/N=C/c1ccc(N(C)C)cc1 | 75.5 ug/100mg of tissue |  |  | 100 mg/kg | >13.6 | 100 mg/kg | 100 mg/kg | 9% | 4 | 300 mg/kg | 2 |  | 68.1 ug/100mg of tissue | 1 |  | 300 mg/kg | 0% | 0% | 3 | 2 | NT (Mus musculus [28]): 300 mg/kg; Activity (Mus musculus [29]): 147; ED50 (Rattus norvegicus [30]): 18.3 mg/kg; TD50 (Rattus norvegicus [31]): > 250 mg/kg; Activity (Mus musculus [32]): 207; inhibition [33]: 0%; Activity (Mus musculus [34]): 124; inhibition [35]: 0%; inhibition [36]: 64% |
| COc1cc(/C=N/NC(=O)Nc2c(C)cccc2C)ccc1O | 91.2 ug/100mg of tissue | 56% | 0% | 100 mg/kg | >4.4 | 30 mg/kg | 100 mg/kg |  | 4 | 300 mg/kg | 4 | 68 min | 106 ug/100mg of tissue | 3 | 23% | 300 mg/kg |  |  | 3 | 3 | TD50 (Rattus norvegicus [37]): > 117 mg/kg; Inhibition (Rattus norvegicus [38]): 56%; Activity (Mus musculus [39]): 130; ED50 (Rattus norvegicus [40]): 26.2 mg/kg; Inhibition (Rattus norvegicus [41]): 12%; Inhibition (Rattus norvegicus [42]): 0%; Activity (Mus musculus [43]): 157; Activity (Mus musculus [44]): 207 |
| Cc1cccc(C)c1NC(=O)/N=N/c1c(O)[nH]c2ccc(F)cc12 |  |  |  | 100 mg/kg |  | 30 mg/kg | 100 mg/kg |  | 3 | 300 mg/kg | 1 |  |  | 1 |  | 300 mg/kg |  |  | 1 | 1 | NT (Mus musculus [28]): 300 mg/kg; Activity (Mus musculus [45]): 194; Activity (Mus musculus [46]): 204 |
